The results in this text go back to patent US20070060549A1, “COMBINATION THERAPIES EMPLOYING ACE INHIBITORS AND USES THEREOF FOR THE TREATMENT OF DIABETIC DISORDERS” (priority 2004, published 2007).

For one series, the system named is rat. In words: Acute toxicity evaluation of P5P in the rat. The format is in vivo. The note with it: doses up to 5 g/kg. As for the experimental part:
(§1) As a prelude to human clinical studies, the toxicology of P5P was assessed by conventional means using two animal species, rats and dogs. […] Long term studies, 13-week oral toxicity in dogs, and 26-week oral toxicity in rats, were completed.

The subject of series [1] is patients. The series is described as follows: Phase I single dose tolerance study of P5P. The format is in vivo, human. The protocol:
(§2) In a Phase I single dose tolerance study, conducted in accordance with generally accepted clinical practice standards, groups of six patients were tested at 15 mg/kg, 30 mg/kg, and 60 mg/kg (enteric coated tablets). […] Four subjects in the 60 mg/kg dose group reported a total of 10 adverse events including diarrhea, bradycardia, bubbly stomach, flatulence, and headaches that were mild in severity.

Series [2] relates to rats. The series is described as follows: 14-day oral administration of P5P to rats. The format is in vivo, rat. The note with it: orally 50 mg/kg for 14 days. As for the experimental part:
as §1

Series [3] concerns rats. In words: 26-week oral toxicity in rats. It counts as in vivo. The note with it: 26-week rat study. As for the experimental part: as §1
Series [4] concerns diabetic hypertensive patients. In words: Phase II clinical study of P5P: glycated hemoglobin (HbA1c). The format is in vivo, human. The settings on record: patients with clinically elevated HbA1c at start; 250, 500, 750 mg P5P two weeks each, then 4-week washout. As for the experimental part: In a phase II clinical study, conducted in accordance with generally accepted clinical practice standards, diabetic hypertensive patients were treated with P5P. Glucose control was determined by measuring glycated hemoglobin levels (HbA1c). Four weeks prior to treatment, patients ceased all antihypertensive therapy. Following the washout period, baseline HbA1c measurements were taken. Patients were than treated with 250 mg, 500 mg, and 750 mg of P5P for two weeks at each dosage. P5P treatment was then discontinued for 4 weeks. Following the washout period, HbA1c measurements were taken.

Series [5] can be described thus: Phase I pharmacokinetics of P5P. The format is in vivo, human. The note with it: Phase I dose levels; small numbers of subjects, large inter-subject variability. The protocol:
as §2

Series [6] deals with patients. In words: Phase I multi-dose tolerance study of P5P. It counts as in vivo, human.
The subject of series [7] is dogs. In words: Acute toxicity evaluation of P5P in dogs. It counts as in vivo, dog. The note with it: doses up to 100 mg/kg. As for the experimental part: as §1
In series [8] the test system is dogs. The series is described as follows: 13-week oral toxicity in dogs. It counts as in vivo. The settings on record: 13-week dog study. The protocol:
as §1

The subject of series [9] is hypertensive patients with type 2 diabetes. The settings on record: 8 weeks.
Procedure: Summary of Study Design—The phase II study was a randomized, parallel group, cross-over, double-blinded to study medication, placebo-controlled comparison of P5P BID at total daily doses of 100, 300 or 1000 mg alone and in combination with 20 mg lisinopril given once daily (QD). In order to protect against antihypertensive and metabolic carry-over effects of lisinopril, 160 patients were randomized in 2 different treatment sequences. Patients randomized in the first treatment sequence received an 8-week treatment with lisinopril 20 mg and P5P (or placebo) and then an 8-week treatment with P5P alone (or placebo). […]
Mean trough sitting and standing BP were measured at each visit. […]
Ambulatory blood pressure (ABP) was measured using a SpaceLabs Medical ABPM Monitor Model 90207 (SpaceLabs Medical Inc., Redmond, Wash.). […] Following the initiation of two manual readings, a third manual reading was initiated and began the 24-hour monitoring period. […] A manual reading was initiated at the end of the 24-hour period to ensure that there was at least one data point in the last hour of the 24-hour period. Subjects were instructed to initiate a manual reading should they be late for their scheduled clinic appointment to ensure that a reading in the last hour of the 24-hour period was not missed. On completion of the readings, the ABPM device was removed from the subject. […]

For the compound `Cc1ncc(COP(=O)(O)O)c(C=O)c1O` [P5P, pyridoxal-5′-phosphate], the acute toxicity result with rat and in the series on dogs [7] was “no significant toxicity” throughout. Further, the adverse events result with patients [1] (single dose 15 mg/kg, enteric coated tablets, six patients) was “No adverse events were reported”; in the series on patients [1] (single dose 30 mg/kg, enteric coated tablets, six patients) it was “One subject in the 30 mg/kg dose group experienced events of dizziness and sleepiness”. The “subjects reporting adverse events” value in the series with patients [1] (single dose 60 mg/kg, enteric coated tablets, six patients) is “Four”. The same compound showed a total adverse events in the series on patients [1] (single dose 60 mg/kg, diarrhea, bradycardia, bubbly stomach, flatulence, headaches, mild in severity) of 10. Moreover, the signs of toxicity entry with rats [2] is given as “no signs of toxicity”. In the series on rats [3] (any dose level (50, 100/175, 175/325 mg/kg)), the “findings of toxicological significance” value is “No findings of toxicological significance”. In addition, the “findings in high dose group” value in the series with rats [3] (high dose group) is “reversible reduction in body weight gain and increased incidence of stomach microulcers”; in the series on dogs [8] (50-60 mg/kg, all other findings mild to moderate), “anorexia and body weight loss”. Besides, the “reduction in HbA1c levels as compared to baseline” value in series [4] was 5.4%. Moreover, the dose-linearity of pharmacokinetics result in series [5] is recorded as “did not demonstrate dose-linearity”. For the same compound, the tolerance result was “five of six patients treated with 30 mg/kg P5P tolerated the medication well” in the series on patients [6] (multi-dose 30 mg/kg, one patient withdrew due to vomiting and diarrhea); “all 6 treated patients experiencing a variety of mild gastrointestinal symptoms” with patients [6] (multi-dose 60 mg/kg). Further, the drug related toxicities entry in the series on dogs [8] (10 and 25 mg/kg) was “no drug related toxicities were observed”. For the same compound, the recovery result in the series with dogs [8] (50-60 mg/kg group, recovery phase) is on record as “recovered almost completely”.

As to `NCCCC[C@H](N[C@@H](CCc1ccccc1)C(=O)O)C(=O)N1CCC[C@H]1C(=O)O` [lisinopril], the “reduction in MDASBP from baseline” value in series [9] (lisinopril 20 mg/dose and placebo, p=0.002) was found to be 7.5 mmHg. The “reduction in MDADBP from baseline” value in series [9] (lisinopril 20 mg/dose plus placebo, p=0.005) was 4.1 mmHg.
